Earlier results on one molecule are cited in publication PMC11734723 (Science Advances, 2025).

For series [1], the system named is RANKL-induced osteoclast differentiation. The following applies: cited from earlier work.
A further series concerns Orai channels. The following applies: cited from earlier work.
Series [2] deals with collagen-induced arthritis (CIA) mouse model. The following applies: administered beginning at the time of arthritis induction; cited from earlier work.

A value given as a limit tells only on which side of the number the result lay.

For the molecule `CCC(=O)Nc1ccc(Cl)c(Cl)c1` [3,4-dichloropropionanilide], the “inhibition of RANKL-induced osteoclastogenesis” value in series [1] (100 nM) was “failed to inhibit”. The “formation of bone-degrading osteoclasts” value in series [1] (in vitro) was “reduced”. The “concentration needed to block RANKL-induced osteoclast differentiation” value in series [1] (in vitro, not blocked at concentrations below this) was ≥ 10 µM. Besides, the “effect on Orai channels” value with Orai channels is “inhibits”. The effect on arthritis result in series [2] is “reduces arthritis”.
